Assay results: patent publication US9549926B2, “Compositions and methods of treating pulmonary hypertension” (Gilead Sciences, Inc., priority 2010, dated 2017)
pIC50, pKi: −log10 of the molar value. Read-outs that look alike come from different tables or passages of the source.

How the values were obtained:
[1] = system: ET-1-induced contraction of rat intact intrapulmonary arterial rings; assay: Ex-vivo vascular function assay: relaxation of ET-1-contracted intact rat intrapulmonary arterial rings; type: cell-based; conditions: 8 nM ET-1, 10 nM ambrisentan, 30 nM tadalafil, alone or in combination, mean±SEM
Procedure: The selective type-A endothelin receptor antagonist, ambrisentan ([…]®), and the phosphodiesterase type 5 inhibitor, tadalafil ([…]®), are currently used to treat pulmonary arterial hypertension. Isolated rat intact intrapulmonary arterial rings contracted with 8 nM endothelin-1 (ET-1) were relaxed by 10 nM ambrisentan (from Gilead Sciences, Inc.) and 30 nM tadalafil (from Sequoia Research Products Ltd. Pangbourne, UK) by 30±13% (mean±SEM, n=3) and 12±5% (n=3), respectively, whereas both drugs in combination relaxed the intact intrapulmonary arterial rings by […] (FIG. 1, n=3, P<0.01 vs. mono-administration of ambrisentan or tadalafil). Intrapulmonary arteries (200-500 μm) and aortas were isolated from Sprague Dawley rats (300-320 g) and cut into 1-2 mm rings. Rings were mounted in a myograph and constricted with a submaximal concentration (8 nM) of ET-1. Ambrisentan, Bosentan, Macitentan and Tadalafil alone and in combination were evaluated in ET-constricted rings. Isolated rat intact intrapulmonary arterial rings contracted with 8 nM endothelin-1 (ET-1) were relaxed by 10 nM ambrisentan and 30 nM tadalafil by 29±1% (mean±SEM, n=4) and 22±2% (n=4), respectively, whereas both drugs in combination relaxed the intact intrapulmonary arterial rings by 85±3% (FIG. 2, n=4, P<0.01 vs. mono-administration of ambrisentan or tadalafil).

[2] = system: ET-1-induced contraction of endothelium-denuded aortic rings; assay: ET-1-induced contraction of endothelium-denuded aortic rings; type: cell-based, rat; conditions: 10 nM ambrisentan, n=4
Procedure: (§1) Intrapulmonary arteries (200-500 μm) and aortas were isolated from Sprague Dawley rats (300-320 g) and cut into 1-2 mm rings. Rings were mounted in a myograph and constricted with a submaximal concentration (8 nM) of ET-1. Ambrisentan, Bosentan, Macitentan and Tadalafil alone and in combination were evaluated in ET-constricted rings.

[3] = system: ET-1-induced contraction of endothelium-denuded pulmonary arterial rings; assay: ET-1-induced contraction of endothelium-denuded pulmonary arterial rings; type: cell-based, rat; conditions: FIG. 5, 10 nM ambrisentan, 30 nM tadalafil, n=4
Procedure: as §1

[4] = system: ET-1-induced contraction of rat intact thoracic aortic rings; assay: Ex-vivo vascular function assay: relaxation of ET-1-contracted intact rat thoracic aortic rings; type: cell-based; conditions: for relaxation of intact thoracic aortic rings in the presence of ET-1: Example 1, FIG. 1, 8 nM ET-1, 10 nM ambrisentan, 30 nM tadalafil, alone or in combination, n=3; for pIC50: Rattus norvegicus, read-out: IC50 to relax ET-1 constricted aortic rings
Procedure: as §1, with “The combination of both 10 nM ambrisentan and 30 nM tadalafil relaxed the ET-1-induced contraction of the intact thoracic aortic rings by 81±7% (FIG. 1, n=3; P<0.01 vs. mono-administration of ambrisentan or tadalafil). […] Intrapulmonary” for “Intrapulmonary”

[5] = system: hypoxia-induced mean pulmonary arterial pressure (mPAP) in male SD rats; assay: Hypoxia-induced pulmonary arterial hypertension (PAH) animal model; type: in vivo; conditions: 3 wks hypoxia, rat
Procedure: Male SD Rats (225-250 g) were housed in chambers under normoxic (sea level) or hypoxic (10% oxygen) conditions for 3 weeks. Rats were dosed with vehicle (0.5% hydroxypropyl methylcellulose (HPMC), 0.2% Tween 80, and 0.9% benzyl alcohol in water), AMB or TAD (quaque die) beginning the day they were placed in chambers. Plasma was collected when animals were terminated. [table]

[6] = Free plasma concentration in the rat PAH study; type: in vivo; conditions: Sprague-Dawley, read-out: free or unbounded plasma concentration
Procedure: Rats were dosed with vehicle (0.5% hydroxypropyl methylcellulose (HPMC), 0.2% Tween 80, and 0.9% benzyl alcohol in water), AMB or TAD (quaque die) beginning the day they were placed in chambers. Plasma was collected when animals were terminated.
The free or unbounded plasma concentration for 10 mpk AMB dosing was about 104 nM in both cases. The free or unbounded plasma concentrations of TAD was about 24 nM when administered separately, or about 26 nM when administered with AMB, whether 1 mpk or 10 mpk.

ETA receptor = target: T1, ETA receptor (Homo sapiens, UniProt P25101); conditions: read-out: affinity for the ETA receptor; cited from earlier work
T1 sequence (P25101 21-427): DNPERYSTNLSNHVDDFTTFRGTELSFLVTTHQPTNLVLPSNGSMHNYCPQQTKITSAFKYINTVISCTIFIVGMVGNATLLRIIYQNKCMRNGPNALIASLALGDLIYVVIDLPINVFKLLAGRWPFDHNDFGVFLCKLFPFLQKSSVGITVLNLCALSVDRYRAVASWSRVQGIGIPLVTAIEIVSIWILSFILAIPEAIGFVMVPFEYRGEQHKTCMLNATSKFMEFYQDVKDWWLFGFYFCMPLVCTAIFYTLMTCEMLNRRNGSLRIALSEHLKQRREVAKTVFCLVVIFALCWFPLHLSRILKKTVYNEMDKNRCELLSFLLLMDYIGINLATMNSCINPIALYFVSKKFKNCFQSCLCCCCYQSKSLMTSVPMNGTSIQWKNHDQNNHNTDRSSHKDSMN

[7] = Example 2, FIG. 2, 100 nM bosentan, 30 nM macitentan

Row | SMILES | relaxation of intact intrapulmonary arterial rings contracted with ET-1 [1, 7] [%] | reduction of contraction induced by ET-1 [2] | reduction of contraction induced by ET-1 [3] | relaxation of intact thoracic aortic rings in the presence of ET-1 [4] [%] | pIC50 ([4]; in the presence of 10 nM ambrisentan) | pIC50 ([4]; tadalafil alone) | relaxation of intact intrapulmonary arterial rings contracted with ET-1 ([1]; Example 1, FIG. 1, n=3) [%] | inhibition of PAP (mPAP±SEM) ([5]; 10 mpk TAD once daily) [%] | concentration at 3 weeks ([6]; 10 mpk, TAD (10 mpk), administered separately) [nM] | concentration at 3 weeks ([6]; TAD (10 mpk), administered with AMB, 1 mpk or 10 mpk) [nM] | pKi (ETA receptor) | inhibition of PAP (mPAP±SEM) ([5]; 1 mpk AMB once daily) [%] | inhibition of PAP (mPAP±SEM) ([5]; 10 mpk AMB once daily) [%] | concentration at 3 weeks ([6]; 1 mpk, AMB 1 mpk, administered separately) [nM] | concentration at 3 weeks ([6]; AMB 1 mpk, administered along with TAD) [nM] | concentration at 3 weeks ([6]; AMB 10 mpk, separately or with TAD (both cases)) [nM]
1 | COc1ccccc1Oc1c(NS(=O)(=O)c2ccc(C(C)(C)C)cc2)nc(-c2ncccn2)nc1OCCO [bosentan] | 25±1 |  |  |  |  |  |  |  |  |  |  |  |  |  |  | 
2 | CCCNS(=O)(=O)Nc1ncnc(OCCOc2ncc(Br)cn2)c1-c1ccc(Br)cc1 [macitentan] | 31±2 |  |  |  |  |  |  |  |  |  |  |  |  |  |  | 
3 | CN1CC(=O)N2[C@H](c3ccc4c(c3)OCO4)c3[nH]c4ccccc4c3C[C@@H]2C1=O [tadalafil, (6R-trans)-6-(1,3-benzodioxol-5-yl)-2,3,6,7,12,12a-hexahydro-2-methyl-pyrazino [1′, 2′:1,6] pyrido[3,4-b]indole-1,4-dione] | 22±2 | failed to inhibit contraction | failed to inhibit contraction | 16±4 | 7.80 | 7.10 | 12±5 | 23.2±1.3 | ~24 | ~26 |  |  |  |  |  | 
4 | COC(c1ccccc1)(c1ccccc1)[C@H](Oc1nc(C)cc(C)n1)C(=O)O [ambrisentan, (2S)-2-[(4,6-dimethylpyrimidin-2-yl)oxy]-3-methoxy-3,3-diphenylpropanoic acid] | 29±1 | 26±7% | 23±4% | 32±3 |  |  | 30±13 |  |  |  | ~10.92 | 28.4±1.1 | 42.1±2.4 | ~17 | ~13 | ~104
